Results taken from ChEMBL document CHEMBL3734705, “Synthesis and in vitro cytotoxicity of novel C-12 substituted-14-deoxy-andrographolide derivatives as potent anti-cancer agents” (2015).

Tests used:
[1] = Cytotoxicity against human HL-60(TB) cells assessed as growth inhibition at 10 uM after 48 hrs by SRB assay; format: functional; conditions: HL-60, 48 h, read-out: GI
[2] = Cytotoxicity against human HOP92 cells assessed as growth inhibition at 10 uM after 48 hrs by SRB assay; format: functional; conditions: HOP-92, 48 h, read-out: GI
[3] = Cytotoxicity against human HCT116 cells assessed as growth level at 10 uM after 48 hrs by SRB assay; format: functional, HCT-116
[4] = Cytotoxicity against human UACC62 cells assessed as growth level at 10 uM after 48 hrs by SRB assay; format: functional, UACC-62
SR = experiment: Cytotoxicity against human SR cells assessed as growth inhibition at 10 uM after 48 hrs by SRB assay; format: functional; conditions: read-out: GI
[5] = Cytotoxicity against human SW620 cells assessed as growth inhibition at 10 uM after 48 hrs by SRB assay; format: functional; conditions: SW-620, 48 h, read-out: GI
[6] = Cytotoxicity against human OVCAR4 cells assessed as growth level at 10 uM after 48 hrs by SRB assay; format: functional, OVCAR-4
[7] = Cytotoxicity against human OVCAR8 cells assessed as growth inhibition at 10 uM after 48 hrs by SRB assay; format: functional; conditions: OVCAR-8, 48 h, read-out: GI
HT-29 = experiment: Cytotoxicity against human HT-29 cells assessed as growth level at 10 uM after 48 hrs by SRB assay; format: functional
[8] = Cytotoxicity against human Hs578T cells assessed as growth level at 10 uM after 48 hrs by SRB assay; format: functional, Hs-578T
MCF7 = experiment: Cytotoxicity against human MCF7 cells assessed as growth inhibition at 10 uM after 48 hrs by SRB assay; format: functional; conditions: MCF7, 48 h, read-out: GI
[9] = Cytotoxicity against human HOP62 cells assessed as growth level at 10 uM after 48 hrs by SRB assay; format: functional, HOP-62
[10] = Cytotoxicity against human HCC2998 cells assessed as growth inhibition at 10 uM after 48 hrs by SRB assay; format: functional; conditions: HCC 2998, 48 h, read-out: GI
NCI-H23 = experiment: Cytotoxicity against human NCI-H23 cells assessed as growth inhibition at 10 uM after 48 hrs by SRB assay; format: functional; conditions: NCI-H23, 48 h, read-out: GI
CCRF-CEM [11] = experiment: Cytotoxicity against human CCRF-CEM cells assessed as growth level at 10 uM after 48 hrs by SRB assay; format: functional
[12] = Cytotoxicity against human LOXIMVI cells assessed as growth level at 10 uM after 48 hrs by SRB assay; format: functional, LOX IMVI
EKVX = experiment: Cytotoxicity against human EKVX cells assessed as growth level at 10 uM after 48 hrs by SRB assay; format: functional
[13] = Cytotoxicity against human PC3 cells assessed as growth inhibition at 10 uM after 48 hrs by SRB assay; format: functional; conditions: PC-3, 48 h, read-out: GI
[14] = Cytotoxicity against human TK10 cells assessed as growth level at 10 uM after 48 hrs by SRB assay; format: functional, TK-10
[15] = Cytotoxicity against human UACC62 cells assessed as growth inhibition at 10 uM after 48 hrs by SRB assay; format: functional; conditions: UACC-62, 48 h, read-out: GI
NCI-H226 = experiment: Cytotoxicity against human NCI-H226 cells assessed as growth inhibition at 10 uM after 48 hrs by SRB assay; format: functional; conditions: NCI-H226, 48 h, read-out: GI
MDA-MB-468 [16] = experiment: Cytotoxicity against human MDA-MB-468 cells assessed as growth level at 10 uM after 48 hrs by SRB assay; format: functional
CCRF-CEM [17] = experiment: Cytotoxicity against human CCRF-CEM cells assessed as growth inhibition at 10 uM after 48 hrs by SRB assay; format: functional; conditions: read-out: GI
[18] = Cytotoxicity against human RPMI8226 cells assessed as growth inhibition at 10 uM after 48 hrs by SRB assay; format: functional; conditions: RPMI-8226, 48 h, read-out: GI
SK-MEL-5 = experiment: Cytotoxicity against human SK-MEL-5 cells assessed as growth inhibition at 10 uM after 48 hrs by SRB assay; format: functional; conditions: SK-MEL-5, 48 h, read-out: GI
NCI-H322M = experiment: Cytotoxicity against human NCI-H322M cells assessed as growth inhibition at 10 uM after 48 hrs by SRB assay; format: functional; conditions: read-out: GI
MDA-MB-435 [19] = experiment: Cytotoxicity against human MDA-MB-435 cells assessed as growth level at 10 uM after 48 hrs by SRB assay; format: functional
[20] = Cytotoxicity against human DU145 cells assessed as growth inhibition at 10 uM after 48 hrs by SRB assay; format: functional; conditions: DU-145, 48 h, read-out: GI
[21] = Cytotoxicity against human IGROV1 cells assessed as growth inhibition at 10 uM after 48 hrs by SRB assay; format: functional; conditions: IGROV-1, 48 h, read-out: GI
[22] = Cytotoxicity against human NCI-ADR-RES cells assessed as growth level at 10 uM after 48 hrs by SRB assay; format: functional
Malme-3M = experiment: Cytotoxicity against human MALME-3M cells assessed as growth level at 10 uM after 48 hrs by SRB assay; format: functional
K562 = experiment: Cytotoxicity against human K562 cells assessed as growth inhibition at 10 uM after 48 hrs by SRB assay; format: functional; conditions: K562, 48 h, read-out: GI
[23] = Cytotoxicity against human RPMI8226 cells assessed as growth level at 10 uM after 48 hrs by SRB assay; format: functional, RPMI-8226
MDA-MB-468 [24] = experiment: Cytotoxicity against human MDA-MB-468 cells assessed as growth inhibition at 10 uM after 48 hrs by SRB assay; format: functional; conditions: MDA-MB-468, 48 h, read-out: GI
MDA-MB-435 [25] = experiment: Cytotoxicity against human MDA-MB-435 cells assessed as growth inhibition at 10 uM after 48 hrs by SRB assay; format: functional; conditions: MDA-MB-435, 48 h, read-out: GI
[26] = Cytotoxicity against human MOLT4 cells assessed as growth level at 10 uM after 48 hrs by SRB assay; format: functional, MOLT-4
[27] = Cytotoxicity against human SKOV3 cells assessed as growth inhibition at 10 uM after 48 hrs by SRB assay; format: functional; conditions: SK-OV-3, 48 h, read-out: GI
NCI-H460 = experiment: Cytotoxicity against human NCI-H460 cells assessed as growth inhibition at 10 uM after 48 hrs by SRB assay; format: functional; conditions: NCI-H460, 48 h, read-out: GI
A498 = experiment: Cytotoxicity against human A498 cells assessed as growth level at 10 uM after 48 hrs by SRB assay; format: functional
[28] = Cytotoxicity against human HOP92 cells assessed as growth level at 10 uM after 48 hrs by SRB assay; format: functional, HOP-92
[29] = Cytotoxicity against human SF268 cells assessed as growth level at 10 uM after 48 hrs by SRB assay; format: functional, SF-268
[30] = Cytotoxicity against human SW620 cells assessed as growth level at 10 uM after 48 hrs by SRB assay; format: functional, SW-620
ACHN = experiment: Cytotoxicity against human ACHN cells assessed as growth inhibition at 10 uM after 48 hrs by SRB assay; format: functional; conditions: read-out: GI

`C=C1CC[C@@H]2[C@](C)(COC(C)=O)[C@H](OC(C)=O)CC[C@@]2(C)[C@@H]1CC(NCc1ccc(F)cc1)C1=CCOC1=O` (mixture of isomers) gave an inhibition of growth at 10 µM [1] of 9.52%, an inhibition of growth at 10 µM [2] of 81.2% and an Activity [3] of 33.73%. The Activity [4] was 32.2%, the inhibition of growth at 10 µM (SR) was 92.3% and the inhibition of growth at 10 µM [5] was 68%. It also gave an Activity [6] of 30.87%, an inhibition of growth at 10 µM [7] of 81.4% and an Activity (HT-29) of 21.32%. For the same molecule, the Activity [8] was 72.47%, the inhibition of growth at 10 µM (MCF7) was 83.4% and the Activity [9] was 78.73%. It also gave an inhibition of growth at 10 µM [10] of 10.7%, an inhibition of growth at 10 µM (NCI-H23) of 42.1% and an Activity (CCRF-CEM [11]) of 9.18%. For the same molecule, the Activity [12] was 9.33%, the Activity (EKVX) was 50.01% and the inhibition of growth at 10 µM [13] was 79.2%. The Activity [14] was 66.64%, the inhibition of growth at 10 µM [15] was 67.8% and the inhibition of growth at 10 µM (NCI-H226) was 59.9%. It also gave an Activity (MDA-MB-468 [16]) of 27.52%, an inhibition of growth at 10 µM (CCRF-CEM [17]) of 90.8% and an inhibition of growth at 10 µM [18] of 98.7%. For the same molecule, the inhibition of growth at 10 µM (SK-MEL-5) was 88.2%, the inhibition of growth at 10 µM (NCI-H322M) was 27.5% and the Activity (MDA-MB-435 [19]) was 32.73%. It also gave an inhibition of growth at 10 µM [20] of 30.2%, an inhibition of growth at 10 µM [21] of 51.6% and an Activity [22] of 28.29%. It also gave an Activity (Malme-3M) of 65.1%, an inhibition of growth at 10 µM (K562) of 81.2% and an Activity [23] of 1.27%. It also gave an inhibition of growth at 10 µM (MDA-MB-468 [24]) of 72.5%, an inhibition of growth at 10 µM (MDA-MB-435 [25]) of 67.3% and an Activity [26] of -0.37%. For the same molecule, the inhibition of growth at 10 µM [27] was 5.68%, the inhibition of growth at 10 µM (NCI-H460) was 44.8% and the Activity (A498) was 51.71%. For the same molecule, the Activity [28] was 18.82%, the Activity [29] was 62.59% and the Activity [30] was 32.04%. For the same molecule, the inhibition of growth at 10 µM (ACHN) was 49.1%.
